Measurements as given in patent publication US11352320B2 (Merck Sharp & Dohme Corp., priority 2018, dated 2022).
Structures can show the parent of a compound that is named as a salt.

Target: IDO1 (Homo sapiens, UniProt P14902)
Assay: IDO1 Cellular Assay in Hela Cells Stimulated with IFNγ
Type: cell-based
Parameters: endogenous in cells; host or cells: HeLa cells stimulated with IFNγ
Details: IFNγ 100 ng/mL, 300 uM L-tryptophan, about 48 hours, fluorescence readout, read-out: IDO1 HELA Cell Assay, IC50
Procedure: Biological Assays IDO1 Cellular Assay in Hela Cells Stimulated with IFNγ
Hela cells were cultured in complete Hela culture medium (90% EMEM, 10% heat-inactivated fetal bovine serum) and expanded to about 1×10^9 cells. The cells were then collected and frozen down at 1×10^7 cells/vial in 1 mL frozen medium (90% complete Hela culture medium, 10% DMSO)
Compounds to be tested were serially diluted in ten 3-fold steps in DMSO starting from 10 mM DMSO stocks in Echo low volume plate(s). Compound dilutions or DMSO alone were then dispensed from the dilution plate(s) into Greiner black 384-well assay plate(s) (catalog #781086, 50 nL/well) using an Echo 550 acoustic liquid handler (Labcyte).
Frozen Hela cells were thawed and transferred into Hela assay medium (99% complete Hela culture medium, 1% Pen/Strep) with 20 mL medium/vial of cells. The cells were spun down at 250 g in a table top centrifuge for 5 min and suspended in same volume of Hela assay medium. The cells were then counted and adjusted to a density of 2×10^5 cells/ml in Hela assay medium. Sterile L-tryptophan were added to the cells with final concentration of 300 uM L-tryptophan. A small aliquot (2 mL/plate) of Hela cells were set aside and were not treated with IFNγ, to serve as the Max-E control. The rest of Hela cells were added with sterile IFNγ (Cat #285-IF, R & D systems) with a final concentration of 100 ng/mL.
Hela cells with and without IFNγ were dispensed to the respective wells of 384-well assay plates containing the compounds. The plates were incubated for about 48 hours at a 37° C., 5% CO2 incubator. Afterwards, 12 μL of 0.5 M methyl isonipecotate in dimethyl sulfoxide were added into each well and the plates were sealed and incubated at 37° C. without CO2 overnight. The plates were centrifuged for 1 min at 200×g. The resulting fluorescence was measured in a Spectramax plate reader (Molecular Devices) with a 400 nm excitation filter and a 510 nm emission filter.
The fluorescence intensity of each well was corrected for the background observed in wells with non-IFNγ-treated cells and was expressed as a fraction of the intensity observed in wells of IFNγ-treated cells and DMSO only. Potencies were calculated by linear least squares fit to the four parameter logistic IC50 equation.
Compounds disclosed herein generally have IC50 of about 1 nM to about 1,000 nM, or more specifically, about 2 nM to about 800 nM, or more specifically, about 5 nM to about 600 nM, or still more specifically, about 10 nM to about 500 nM. Such a result is indicative of the intrinsic activity of the compounds in use as an inhibitor of an IDO enzyme.

Chain of IDO1 (P14902 whole entry): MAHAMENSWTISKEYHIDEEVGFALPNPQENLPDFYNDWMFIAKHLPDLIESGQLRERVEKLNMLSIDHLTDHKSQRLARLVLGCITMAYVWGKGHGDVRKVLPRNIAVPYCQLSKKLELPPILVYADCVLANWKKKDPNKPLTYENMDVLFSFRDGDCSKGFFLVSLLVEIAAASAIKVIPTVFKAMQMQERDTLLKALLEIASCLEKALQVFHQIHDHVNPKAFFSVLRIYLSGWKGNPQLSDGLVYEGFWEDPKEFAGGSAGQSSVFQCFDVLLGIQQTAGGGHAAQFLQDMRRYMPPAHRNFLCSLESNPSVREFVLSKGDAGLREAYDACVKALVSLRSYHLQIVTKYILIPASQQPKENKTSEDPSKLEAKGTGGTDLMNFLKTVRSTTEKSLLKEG

| Compound | IC50 [nM] |
| --- | --- |
| Cc1nccc(NC23CC(C(C)C(=O)Nc4ccc(Cl)cc4)(C2)C3)n1 (racemic) [Example 1, N-(4-chlorophenyl)-2-(3-((2-methylpyrimidin-4-yl)amino)bicyclo[1.1.1]pentan-1-yl)propanamide] | 33.3 |
| Cc1nccc(NC23CC([C@H](C)C(=O)Nc4ccc(Cl)cc4)(C2)C3)n1 (single isomer, unassigned) [Example 2, N-(4-chlorophenyl)-2-(3-((2-methylpyrimidin-4-yl)amino)bicyclo[1.1.1]pentan-1-yl)propanamide] | 33.3 |
| Cc1nccc(NC23CC([C@H](C)C(=O)Nc4ccc(Cl)cc4)(C2)C3)n1 (single isomer, unassigned) [Example 3, N-(4-chlorophenyl)-2-(3-((2-methylpyrimidin-4-yl)amino)bicyclo[1.1.1]pentan-1-yl)propanamide] | 428 |
| CC(C(=O)Nc1ccc(F)cc1)C12CC(Nc3ncnc4ccccc34)(C1)C2 (single isomer, unassigned) [Example 4, N-(4-fluorophenyl)-2-(3-(quinazolin-4-ylamino)bicyclo[1.1.1]pentan-1-yl)propanamide] | 388 |
| Cc1nc(NC23CC(C(C)C(=O)Nc4ccc(F)cc4)(C2)C3)c2cc(F)ccc2n1 (single isomer, unassigned) [Example 6] | 590 |
| Cc1nc(NC23CC(C(C)C(=O)Nc4ccc(F)cc4)(C2)C3)c2cc(F)ccc2n1 (single isomer, unassigned) [Example 7] | 17.7 |
| CC(C(=O)Nc1ccc(F)cc1)C12CC(Nc3nc(Cl)nc4c3CCC4)(C1)C2 (single isomer, unassigned) [Example 8, 2-(3-((2-chloro-6,7-dihydro-5H-cyclopenta[d]pyrimidin-4-yl)amino)bicyclo[1.1.1]pentan-1-yl)-N-(4-fluorophenyl)propanamide] | 330 |
| CC(C(=O)Nc1ccc(F)cc1)C12CC(Nc3nc(Cl)nc4c3CCC4)(C1)C2 (single isomer, unassigned) [Example 9, 2-(3-((2-chloro-6,7-dihydro-5H-cyclopenta[d]pyrimidin-4-yl)amino)bicyclo[1.1.1]pentan-1-yl)-N-(4-fluorophenyl)propanamide] | 11.1 |
| CC(C(=O)Nc1ccc(F)cc1)C12CC(Nc3ncnc4ccc(F)cc34)(C1)C2 (single isomer, unassigned) [Example 10, N-(4-fluorophenyl)-2-(3-((6-fluoroquinazolin-4-yl)amino)bicyclo[1.1.1]pentan-1-yl)propanamide] | 208 |
| CC(C(=O)Nc1ccc(F)cc1)C12CC(Nc3nccc4cccnc34)(C1)C2 (centres unmarked) [Example 12, N-(4-fluorophenyl)-2-{3-[(1,7-naphthyridin-8-yl)amino]bicyclo[1.1.1]pentan-1-yl}propanamide] | 587 |
| CC(C(=O)Nc1ccc(F)cc1)C12CC(Nc3ncc(C(F)(F)F)cc3F)(C1)C2 (centres unmarked) [Example 13, N-(4-fluorophenyl)-2-(3-{[3-fluoro-5-(trifluoromethyl)pyridin-2-yl]amino}bicyclo[1.1.1]pentan-1-yl)propanamide] | 138 |
| Cc1nc(NC23CC(C(C)C(=O)Nc4ccc(F)cc4)(C2)C3)ccc1C(F)(F)F (centres unmarked) [Example 14, N-(4-fluorophenyl)-2-(3-{[6-methyl-5-(trifluoromethyl)pyridin-2-yl]amino}bicyclo[1.1.1]pentan-1-yl)propanamide] | 52.4 |
| CC(C(=O)Nc1ccc(F)cc1)C12CC(Nc3ccc(C(F)(F)F)cn3)(C1)C2 (centres unmarked) [Example 15, N-(4-fluorophenyl)-2-(3-{[5-(trifluoromethyl)pyridin-2-yl]amino}bicyclo[1.1.1]pentan-1-yl)propanamide] | 79 |
| CC(C(=O)Nc1ccc(F)cc1)C12CC(Nc3cc(C(F)(F)F)ncn3)(C1)C2 (centres unmarked) [Example 16, N-(4-fluorophenyl)-2-(3-{[6-(trifluoromethyl)pyrimidin-4-yl]amino}bicyclo[1.1.1]pentan-1-yl)propanamide] | 27.2 |
| CC(C(=O)Nc1ccc(F)cc1)C12CC(Nc3nccc(C(F)(F)F)c3C#N)(C1)C2 (centres unmarked) [Example 17, 2-(3-{[3-cyano-4-(trifluoromethyl)pyridin-2-yl]amino}bicyclo[1.1.1]pentan-1-yl)-N-(4-fluorophenyl]propanamide] | 27.2 |
| CC(C(=O)Nc1ccc(F)cc1)C12CC(Nc3cc(C(F)(F)F)ccn3)(C1)C2 (centres unmarked) [Example 18, N-(4-fluorophenyl)-2-(3-{[4-(trifluoromethyl)pyridin-2-yl]amino}bicyclo[1.1.1]pentan-1-yl)propanamide] | 173 |
| CC(C(=O)Nc1ccc(F)cc1)C12CC(Nc3c(C(F)(F)F)ccnc3F)(C1)C2 (centres unmarked) [Example 19, N-(4-fluorophenyl)-2-(3-{[2-fluoro-4-(trifluoromethyl)pyridin-3-yl]amino}bicyclo[1.1.1]pentan-1-yl)propanamide] | 11.9 |
| CC(C(=O)Nc1ccc(F)cc1)C12CC(Nc3ncccc3C(F)(F)F)(C1)C2 (centres unmarked) [Example 20, N-(4-fluorophenyl)-2-(3-{[3-(trifluoromethyl)pyridin-2-yl]amino}bicyclo[1.1.1]pentan-1-yl)propanamide] | 543 |
| CC(C(=O)Nc1ccc(F)cc1)C12CC(Nc3nccnc3C(F)(F)F)(C1)C2 (centres unmarked) [Example 21, N-(4-fluorophenyl)-2-(3-{[3-(trifluoromethyl)pyrazin-2-yl]amino}bicyclo[1.1.1]pentan-1-yl)propanamide] | 454 |
| CC(C(=O)Nc1ccc(F)cc1)C12CC(Nc3ncc(C(F)(F)F)cc3F)(C1)C2 (centres unmarked) [Example 22, N-(4-fluorophenyl)-2-(3-{[3-fluoro-5-(trifluoromethyl)pyridin-2-yl]amino}bicyclo[1.1.1]pentan-1-yl)propanamide] | 166 |
| CC(C(=O)Nc1ccc(F)cc1)C12CC(Nc3nncc4ccccc34)(C1)C2 (centres unmarked) [Example 23, N-(4-fluorophenyl)-2-{3-[(phthalazin-1-yl)amino]bicyclo[1.1.1]pentan-1-yl}propanamide] | 183 |
| CC(C(=O)Nc1ccc(F)cc1)C12CC(Nc3ccnc(C(F)(F)F)c3)(C1)C2 (centres unmarked) [Example 24, N-(4-fluorophenyl)-2-(3-{[2-(trifluoromethyl)pyridin-4-yl]amino}bicyclo[1.1.1]pentan-1-yl)propanamide] | 12.6 |
| CC(C(=O)Nc1ccc(F)cc1)C12CC(Nc3ccnc(C(F)(F)F)n3)(C1)C2 (centres unmarked) [Example 25, N-(4-fluorophenyl)-2-(3-{[2-(trifluoromethyl)pyrimidin-4-yl]amino}bicyclo[1.1.1]pentan-1-yl)propanamide] | 94.1 |
| CC(C(=O)Nc1ccc(F)cc1)C12CC(Nc3cccc(C(F)(F)F)n3)(C1)C2 (centres unmarked) [Example 26, N-(4-fluorophenyl)-2-(3-{[6-(trifluoromethyl)pyridin-2-yl]amino}bicyclo[1.1.1]pentan-1-yl)propanamide] | 74.3 |
| C[C@H](C(=O)Nc1ccc(F)cc1)C12CC(Nc3ccnc(C(F)(F)F)c3)(C1)C2 [Example 27, (S)—N-(4-fluorophenyl)-2-(3-((2-(trifluoromethyl)pyridin-4-yl)amino)bicyclo[1.1.1]pentan-1-yl)propanamide] | 4.83 |
| C[C@H](C(=O)Nc1ccc(F)cc1)C12CC(NCc3cccc(Cl)c3)(C1)C2 [Example 28, (S)-2-(3-((3-chlorobenzyl)amino)bicyclo[1.1.1]pentan-1-yl)-N-(4-fluorophenyl)propanamide, TFA] | 25.7 |
| C[C@H](C(=O)Nc1ccc(F)cc1)C12CC(NCc3cccc(C(F)(F)F)c3)(C1)C2 [Example 30, (S)-N-(4-fluorophenyl)-2-(3-((3-(trifluoromethyl)benzyl)amino)bicyclo[1.1.1]pentan-1-yl)propanamide, TFA] | 82.3 |
| C[C@H](C(=O)Nc1ccc(F)cc1)C12CC(N(C)Cc3cccc(C(F)(F)F)c3)(C1)C2 [Example 31, (S)-N-(4-fluorophenyl)-2-(3-(methyl(3-(trifluoromethyl)benzyl)amino)bicyclo[1.1.1]pentan-1-yl)propanamide, TFA] | 15.1 |
| C[C@H](C(=O)Nc1ccc(F)cc1)C12CC(NCc3ccc(Cl)c(Cl)c3)(C1)C2 [Example 32, (S)-2-(3-((3,4-dichlorobenzyl)amino)bicyclo[1.1.1]pentan-1-yl)-N-(4-fluorophenyl)propanamide, TFA] | 51.3 |
